Key:
Type in all cases: in vivo
Phaedon brassicae = experiment: Pesticidal activity against Phaedon brassicae, leaf-dipping method; conditions: counted 24, 48, 72 hours, time not given, read-out: mortality rate, Phaedon brassicae
Procedure: Cabbage (Daiya) leaves were cut into pieces with a diameter of 5.8 cm, dipped in the pesticide composition where the compound of Synthesis Example 2 was diluted (the solvent=distilled water+acetone 50,000 mg/L+Triton X-100 100 mg/L) for 30 seconds, and sufficiently shade-dried. Then, the shade-dried cabbage leaves were is placed in a petri dish (8.8 cm in diameter) covered with filter paper and repeatedly inoculated 3-5 times with the larvae of Phaedon brassicae, 10 larvae per inoculation. In particular, the Phaedon brassicae larvae used were those which were bred in the Andong National University (Korea) for multiple generations.
After the inoculation, the Phaedon brassicae larvae were stored under the conditions of 16 hours of light and 8 hours of dark, 25±1° C. and 50-60% relative humidity, and the number of live Phaedon brassicae larvae was counted 24, 48, and 72 hours after the inoculation. Thereafter, the larvae mortality rate was calculated in the same manner as in Test Example 1 above.

Manulea degenerella = experiment: Pesticidal activity against Manulea degenerella, spray method; conditions: third instar larvae, counted 24, 48, 72 hours, time not given
Excerpt: A water-soaked filter paper (9.0 cm in diameter) was placed in an insect breeding dish (Lab Guide®) with a diameter of 9.0 cm and a height of 4.0 cm, and then parafilm (width 4.0 cm×height 4.0 cm) was placed thereon. Before treating with a pesticide composition, 10 of the third instar Manulea degenerella larvae were inoculated per breeding dish using a No. 4 brush. In particular, Manulea degenerella larvae used were those collected in Icheon, Gyeonggi-do (Korea). Then, the pesticide composition where the compound of Synthesis Example 2 was diluted (the solvent=distilled water+acetone 50,000 mg/L+Triton X-100 100 mg/L) was loaded into a 100 mL small sprayer, and sprayed 10-12 times at a distance of 30 cm and a height of 50 cm, and one cotyledons of a persimmon tree, which is a host plant, were added one at a time. Then, the Manulea degenerella larvae were stored under the conditions of 16 hours of light and 8 hours of darkness, 25±1° C., and relative humidity of 50-60%, and the number of live Manulea degenerella larvae was counted 24, 48, and 72 hours after the inoculation. Thereafter, the larvae mortality rate was calculated in the same manner as in Test Example 1 above.

Lymantria dispar = experiment: Pesticidal activity against Lymantria dispar, leaf-dipping method; conditions: maple leaf-dipping, counted 24, 48, 72 hours, time not given, read-out: mortality rate, Lymantria dispar
Procedure: Maple leaves were dipped in the pesticide composition where the compound of Synthesis Example 2 was diluted (the solvent=distilled water+acetone 50,000 mg/L+Triton X-100 100 mg/L) for 30 seconds, and sufficiently shade-dried by placing them on aluminum foil. Then, in order to maintain the humidity of the shade-dried maple leaves, they were placed on a petri dish (9.0 cm in diameter) covered with a filter paper (9.0 cm in diameter) treated with distilled water, and repeatedly inoculated 4 times of five early third instar larvae of Lymantria dispar. In particular, Lymantria dispar larvae used were collected in Jukjang-myeon, Buk-gu, Pohang-si, Gyeongsangbuk-do, Korea. Then, Lymantria dispar larvae were stored under 16 hours of light: 8 hours of dark, 25±1° C., and 50-60% relative humidity, and the number of Lymantria dispar larvae was counted 24, 48, and 72 hours after inoculation. Thereafter, the larvae mortality rate was calculated in the same manner as in Test Example 1 above.

Helicoverpa armigera = experiment: Pesticidal activity against Helicoverpa armigera, leaf-dipping method; conditions: counted 24, 48, 72 hours, time not given, read-out: mortality rate, Helicoverpa armigera
Procedure: Cabbage (Daiya) leaves were cut into pieces with a diameter of 5.8 cm, dipped in the pesticide composition where the compound of Synthesis Example 2 was diluted (the solvent=distilled water+acetone 50,000 mg/L+Triton X-100 100 mg/L) for 30 seconds, and sufficiently shade-dried. Then, the shade-dried cabbage leaves were placed in a petri dish (8.8 cm in diameter) covered with a filter paper and repeatedly inoculated 3-5 times with third instar larvae of Helicoverpa armigera, 10 larvae per inoculation. In this case, Helicoverpa armigera larvae used were those purchased from the Andong National University (Korea). Then, the Helicoverpa armigera larvae were stored under the conditions of 16 hours of light and 8 hours of dark, 25±1° C., and relative humidity of 50-60%, and the number of live Helicoverpa armigera larvae was counted 24, 48, and 72 hours after the inoculation. Thereafter, the larvae mortality rate was calculated in the same manner as in Test Example 1 above.

[1] = tested on: Frankliniella occidentalis; experiment: Pesticidal activity against Frankliniella occidentalis, spray method; conditions: 48 h, read-out: mortality rate, Frankliniella occidentalis
How it was run: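 Ten F. occidentalis adults per dish sprayed with compound at 100 ppm in water/acetone 50,000 mg/L/Triton X-100 100 mg/L, then given a soybean cotyledon. Held at 25±1 °C, 50-60% RH, 16:8 h light:dark; live adults counted 48 h after inoculation to give mortality.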

Structure (SMILES)	mortality at 1 ppm (Phaedon brassicae)	mortality at 3 ppm (Phaedon brassicae)	mortality at 10 ppm (Phaedon brassicae)	mortality rate, Manulea degenerella (Manulea degenerella; 0.1 ppm)	mortality rate, Manulea degenerella (Manulea degenerella; 1 ppm)	mortality at 0.01 ppm (Lymantria dispar)	mortality at 0.1 ppm (Lymantria dispar)	mortality at 0.1 ppm (Helicoverpa armigera)	mortality at 1 ppm [1]	mortality at 5 ppm [1]	mortality at 10 ppm [1]
Cc1cc(C2=NOC(c3cc(Cl)cc(C(F)(F)F)c3)(C(F)(F)F)C2)ccc1C(=O)NC(=O)C1CC1 (racemic) [Synthesis Example 2]	100%	100%	100%	100%	100%	74%	100%	100%	100%	100%	100%
CON=CNC(=O)c1ccc(C2=NOC(c3cc(Cl)cc(Cl)c3)(C(F)(F)F)C2)cc1C (stereo not drawn) [Comparative Example 1, fluxametamide]	100%	100%	100%	0%	16%%	5%	95%	78%	7%	13%	50%
CNC(=O)c1cc(Cl)cc(C)c1NC(=O)c1cc(Br)nn1-c1ncccc1Cl [Comparative Example 2, chlorantraniliprole]				100%	100%	0%	10%	31%			

From patent publication US20250380697A1, “ISOXAZOLINE DERIVATIVE COMPOUND AND INSECTICIDAL COMPOSITION COMPRISING SAME” (KYUNG NONG CORPORATION, priority 2022, published 2025)
